Measurements: patent US20240067651A1 (Biohaven Therapeutics Ltd., priority 2019, published 2024)

How the values were obtained:
Plasma Stability = assay type: in vitro ADME, human
Description: Plasma stability estimates the ability of a compound to remain intact in the blood. For prodrugs that are intended to be hydrolyzed by plasma enzymes a certain level of instability in plasma indicates the compound is probably breaking down to the parent drug. A stability range of 25-75% remaining parent compound after 1 hour in plasma indicates the compound is likely breaking down to the parent drug molecule and a patient will be exposed to this parent molecule.
Assessment of plasma stability was carried out by individual incubations of drug candidates in fresh human plasma at a concentration of 1 μM for 1 hour at 37° C. After which, the samples were de-proteinized by addition of 2 volumes of acetonitrile containing 0.1% formic acid and internal standard, vortex mixed for 2 minutes and centrifuged at 4,000 rpm for 10 minutes to pellet precipitated protein. The resulting supernatant containing the drug candidates was diluted 5-fold with water containing 0.1% formic acid and submitted to LCMS/MS analysis. All determinations were done in triplicate. Plasma stability was expressed as percent of control remaining.
See Pelletier et al. ACS Med. Chem. Lett. 2018, 9, 752-756.

[1] = Stability in Simulated Intestinal Fluid (SIF); assay type: in vitro ADME; design: key: % parent compound remaining relative to 0-minute sample
Description: (§1) Simulated gastric fluid (SGF) and Simulated intestinal fluid (SIF) stability are in vitro metrics indicating the ability of a compound to pass through the gastrointestinal tract […] or completely digested. An undigested or nearly undigested compound will usually survive gut transit long enough to be absorbed into the systemic circulation. Greater than 50% remaining intact compound at 1 hour indicates a relatively stable molecule that will likely be absorbed in the gut.
(§2) For each test compound, samples at a final concentration of 2 μg/mL are prepared in respective blank simulated gastric fluid with pepsin (pH 1.2) and simulated intestinal fluid with pancreatin (pH 6.8). All samples are incubated at 37° C. on a 150-rpm orbital shaker, and an aliquot is removed at predetermined time points (0 to 60 minutes). Samples are precipitated with three volumes of acetonitrile containing propranolol as internal standard, and centrifuged for 10 min at 2,000 g before LC-MS/MS analysis of the supernatant solutions. Percent parent compound remaining is determined relative to 0-minute incubation samples. If a sufficient number of time points are available, the degradation half-life is calculated based on the natural log of % compound remaining vs. time plot.

[2] = Stability in Simulated Gastric Fluid (SGF); assay type: in vitro ADME; design: key: % parent compound remaining relative to 0-minute sample
Description: as §1, §2

[3] = bare number, unit or time not given
[4] = simulated intestinal fluid, remaining at 1 h
[5] = simulated gastric fluid, remaining at 1 h

Row | Compound | human Plasma stability (Plasma Stability; % remaining @ 1 h) | human Plasma stability (Plasma Stability; human plasma, remaining at 1 h) [% remaining] | SIF [1, 4] [% remaining] | SGF [2, 5] [% remaining] | further results
1 | CC(C)OCCn1c(SCOC(=O)[C@@H](N)Cc2ccccc2)nc(=O)c2[nH]ccc21.O=C(O)C(F)(F)F [Example 310, trifluoroacetic acid ({4-oxo-1-[2-(propan-2-yloxy)ethyl]-1H,4H,5H-pyrrolo[3,2-d]pyrimidin-2-yl}sulfanyl)methyl (2S)-2-amino-3-phenylpropanoate] | 4% @ 1 h | – | – | – | SIF ([1]; % remaining @ 1 h): 32% @ 1 h; SGF ([2]; % remaining @ 1 h): 99% @ 1 h
2 | CC(C)C[C@@H](N)C(=O)OCn1ccc2c1c(=O)[nH]c(=S)n2CCOC(C)C.O=C(O)C(F)(F)F [Example 324, trifluoroacetic acid {4-oxo-1-[2-(propan-2-yloxy)ethyl]-2-sulfanylidene-1H,2H,3H,4H,5H-pyrrolo[3,2-d]pyrimidin-5-yl}methyl (2R)-2-amino-4-methylpentanoate] | 1%@ 1 h | – | – | – | SIF ([1]; % remaining @ 1 h): 24%@ 1 h; SGF ([2]; % remaining @ 1 h): 98%@ 1 h
3 | CC(C)OCCn1c(=S)[nH]c(=O)c2c1ccn2COC(=O)CCCCOC(=O)CNC(=O)OC(C)(C)C [Example 328, {4-oxo-1-[2-(propan-2-yloxy)ethyl]-2-sulfanylidene-1H,2H,3H,4H,5H-pyrrolo[3,2-d]pyrimidin-5-yl}methyl 5-[(2-{[(tert-butoxy)carbonyl]amino}acetyl)oxy] pentanoate] | 11%@ 1 h | – | – | – | SIF ([1]; % remaining @ 1 h): 6%@ 1 h; SGF ([2]; % remaining @ 1 h): 97%@ 1 h
4 | CC(C)OCCn1c(=S)n(COC(=O)CCCCOC(=O)[C@@H](N)C(C)C)c(=O)c2c1ccn2COC(=O)CCCCOC(=O)[C@@H](N)C(C)C.O=C(O)C(F)(F)F.O=C(O)C(F)(F)F [Example 337, bis(trifluoroacetic acid) (3-{[(5-{[(2S)-2-amino-3-methylbutanoyl]oxy}pentanoyl)oxy]methyl}-4-oxo-1-[2-(propan-2-yloxy)ethyl]-2-sulfanylidene-1H,2H,3H,4H,5H-pyrrolo[3,2-d]pyrimidin-5-yl)methyl 5-{[(2S)-2-amino-3-methylbutanoyl]oxy}pentanoate] | 60% remaining | – | – | – | SIF [1, 3]: 30; SGF [2, 3]: 98
5 | CC(C)OCCn1c(=S)[nH]c(=O)c2c1ccn2COC(=O)CCCCOC(=O)[C@H](N)C(C)C.O=C(O)C(F)(F)F [Example 338, trifluoroacetic acid {4-oxo-1-[2-(propan-2-yloxy)ethyl]-2-sulfanylidene-1H,2H,3H,4H,5H-pyrrolo[3,2-d]pyrimidin-5-yl}methyl 5-{[(2R)-2-amino-3-methylbutanoyl]oxy}pentanoate] | 4% remaining | – | – | – | SIF [1, 3]: 3; SGF [2, 3]: 99
6 | CC(C)OCCn1c(=S)[nH]c(=O)c2c1ccn2COC(=O)OCCOCCN.O=C(O)C(F)(F)F [Example 354, trifluoroacetic acid 2-(2-aminoethoxy)ethyl {4-oxo-1-[2-(propan-2-yloxy)ethyl]-2-sulfanylidene-1H,2H,3H,4H,5H-pyrrolo[3,2-d]pyrimidin-5-yl}methyl carbonate] | – | 1 | 3 | 99 | –
7 | CC(C)OCCn1c(SCOC(=O)N(C)CCOCCN)nc(=O)c2[nH]ccc21.O=C(O)C(F)(F)F [Example 380, trifluoroacetic acid ({4-oxo-1-[2-(propan-2-yloxy)ethyl]-1H,4H,5H-pyrrolo[3,2-d]pyrimidin-2-yl}sulfanyl) methyl N-[2-(2-aminoethoxy)ethyl]-N-methylcarbamate] | – | 85 | 99 | 100 | –
8 | CC(C)OCCn1c(SCOC(=O)N(C)CCOCCN)nc(=O)c2c1ccn2COC(=O)N(C)CCOCCN.O=C(O)C(F)(F)F.O=C(O)C(F)(F)F [Example 382, bis(trifluoroacetic acid) (2-{[({[2-(2-aminoethoxy)ethyl](methyl)carba-moyl}oxy)methyl]sulfanyl}-4-oxo-1-[2-(propan-2-yloxy)ethyl]-1H,4H,5H-pyrrolo[3,2-d]pyrimidin-5-yl)methyl N-[2-(2-aminoethoxy)ethyl]-N-methylcarbamate] | – | 98 | 99 | 100 | –
9 | (2R)-2-{[(tert-butoxy)carbonyl]amino}-3-methyl-N-{2-[2-(2-{[{{4-oxo-1-[2-(propan-2-yloxy)ethyl]-2-sulfanylidene-1H,2H,3H,4H,5H-pyrrolo[3,2-d]pyrimidin-5-yl}methoxy)carbonyl]oxy}ethoxy)eth-oxy]ethyl}butanamide [Example 377] | – | 8 | – | – | SIF ([1]; simulated intestinal fluid, bare number, unit or time not given): 11; SGF ([2]; simulated gastric fluid, bare number, unit or time not given): 83
10 | ({4-oxo-1-[2-(propan-2-yloxy)ethyl]-1H,4H,5H-pyrrolo[3,2-d]pyrimidin-2 yl}sulfanyl)methyl N-butylcarbamate [Example 185] | – | – | – | – | human Plasma stability (Plasma Stability; % remaining at 1 h in human plasma, the 15th table): 96% @ 1 h; SIF ([1]; % remaining at 1 h in simulated intestinal fluid, the 15th table): 67% @ 1 h; SGF ([2]; % remaining at 1 h in simulated gastric fluid, the 15th table): 78% @ 1 h
11 | N-[2-(2-aminoethoxy)ethyl]-4-oxo-1-[2-(propan-2-yloxy)ethyl]-2-sulfanylidene-1H, 2H,3H,4H,5H-pyrrolo[3,2-d]pyrimidine-5-carboxamide; trifluoroacetic acid [Example 376] | – | 95 | 99 | 98 | –
12 | bis(trifluoroacetic acid) 5-{[2-({[(5-{[(2R)-2-amino-4-methylpentanoyl]oxy}penta-noyl)oxy]methyl}sulfanyl)-4-oxo-1-[2-(propan-2-yloxy)ethyl]-1H,4H,5H-pyrrolo[3,2-d]pyrimidin-5-yl]methoxy}-5-oxopentyl (2R)-2-amino-4-methylpentanoate [Example 351] | – | 99 | 14 | 69 | –
13 | butoxy)carbonyl]amino}ethoxy)eth-yl](methyl)carbamoyl}oxy)methyl]sul-fanyl}-4-oxo-1-[2-(propan-2-yloxy)ethyl]-1H,4H,5H-pyrrolo[3,2-d]pyrimidin-5-yl)methoxy]carbonyl}(methyl)ami-no)ethoxy]ethyl}carbamate [Example 381] | – | 97 | 97 | 82 | –
14 | tert-butyl N-(2-{2-[methyl({[{{4-oxo-1-[2-(propan-2-yloxy)ethyl]-1H,4H,5H-pyrrolo[3,2-d]pyrimidin-2-yl}sulfanyl)methoxy]carbonyl})ami-no]ethoxy}ethyl)carbamate [Example 379] | – | 0 | 69 | 93 | –
15 | {4-oxo-1-[2-(propan-2-yloxy)ethyl]-2-sulfanylidene-1H,2H,3H,4H,5H-pyrrolo[3,2-d]pyrimidin-5-yl}methyl (2R)-1-[2-(2-{[(tert-butoxy)carbonyl]amino}acetamido) acetyl]pyrrolidine-2-carboxylate [Example 405] | – | – | – | – | human Plasma stability (Plasma Stability; % remaining after 1 h in human plasma): 1% remaining; SIF ([1]; % remaining after 1 h in simulated intestinal fluid): 81% remaining; SGF ([2]; % remaining after 1 h in simulated gastric fluid): 83% remaining
